Assays:
[1] = system: HCLO; assay: In vitro chemosensitivity, microtetrazolium (MTT) assay, HCLO; format: cell-based, human; settings: concentration reducing growth rate by 50% of untreated control
Procedure: (§1) The cytotoxic properties of selected examples were evaluated against a panel of established human tumour cell lines.
(§2) HT-29 primary adenocarcinomas of the human colon.
(§3) Chemosensitivity in vitro was assessed using the microtetrazolium assay (MTT assay) (Twentyman & Luscombe, 1987).
(§4) Examples were soluble in 5% ethanol/saline. To each well, 20 μl of drug solution was added to give a final drug concentration of 0.1-100 μg/ml at four log increments. Solvent controls were used throughout, and the first row of each plate contained media plus drug in the absence of any cells. Each point is the result of three separate experiments and cytotoxic effects are expressed in terms of percent survival, taking the optical density of the control plates to represent 100% survival.
(§5) IC50 values are the average concentrations of drug required to reduce the growth rate by 50% of the untreated control system.

[2] = system: K562; assay: In vitro chemosensitivity, microtetrazolium (MTT) assay, K562; format: cell-based; settings: K562 human chronic myelogenous leukaemia, concentration reducing growth rate by 50% of untreated control
Procedure: as §1
(§6) K562--a human chronic myelogenous leukaemia (Lozzio and Lozzio, 1975). HRT--18--a human primary adenocarcinoma from the human rectum (Tompkins et al, 1974).
as §3, §4, §5

[3] = system: HT-29; assay: In vitro chemosensitivity, microtetrazolium (MTT) assay, HT-29; format: cell-based; settings: HT-29 human colon adenocarcinoma, concentration reducing growth rate by 50% of untreated control
Procedure: as §1, §2, §3, §4, §5

[4] = system: HRT-18; assay: In vitro chemosensitivity, microtetrazolium (MTT) assay, HRT-18; format: cell-based; settings: HRT-18 human rectum adenocarcinoma, concentration reducing growth rate by 50% of untreated control
Procedure: as §1, §6, §3, §4, §5

[5] = system: DLD-1; assay: In vitro chemosensitivity, microtetrazolium (MTT) assay, DLD-1; format: cell-based; settings: DLD-1 human colon adenocarcinoma, concentration reducing growth rate by 50% of untreated control
Procedure: as §1, §2, §3, §4, §5

[6] = system: rodents; settings: in rodents; cited from earlier work
[7] = system: man; settings: in man; cited from earlier work

Row | SMILES | IC50 [1] [µM] | IC50 [2] [µM] | IC50 [3] [µM] | IC50 [4] [µM] | IC50 [5] [µM] | IC50 ([1]; Homo sapiens) [µM] | maximum dose [6] [mg/kg] | maximum dose [7] [mg/kg]
1 | CSCC[C@H](N)C(=O)NCCCNc1cccc2c1C(=O)c1ccccc1C2=O [Example 12] | 11.8 | 17.2 | 7.8 | 10.4 | 4.1 |  |  | 
2 | N[C@@H](Cc1ccc(O)cc1)C(=O)NCCCNc1cccc2c1C(=O)c1ccccc1C2=O [Example 15, 1-[3-(L-tyrosinylaminopropyl)amino]-anthracene-9,10-dione] | 6.7 | 14.2 | 0.6 | 3 | 2.1 |  |  | 
3 | CC(C)(C)OC(=O)N[C@H](Cc1ccccc1)C(=O)NCCCNc1cccc2c1C(=O)c1ccccc1C2=O [Example 18, 1-[(3-N-tertiarybutoxycarbonyl-D-phenylalanylamino-propyl)amino]-anthracene-9,10-dione] | 17.4 | 19.8 | 2.5 | 7.7 | 13.2 |  |  | 
4 | N[C@H](Cc1ccccc1)C(=O)NCCCCNc1cccc2c1C(=O)c1ccccc1C2=O [Example 20, 1-[(4-D-phenylalanylaminobutyl)amino]-anthracene-9,10-dione] |  | 22.8 | 14.2 | 16.8 | 8.6 | 21.4 |  | 
5 | COc1cccc2c1C(=O)c1c(O)c3c(c(O)c1C2=O)C[C@@](O)(C(=O)CO)C[C@@H]3O[C@H]1C[C@H](N)[C@H](O)[C@H](C)O1 [doxorubicin] |  |  |  |  |  |  | 5 | 1 to 2
